Consider 18 molecules from patent US12630498B2 (Genzyme Corporation, priority 2019, dated 2026).

The structures appear in SMILES notation. pEC50: −log10 of the molar value.

As usually defined, the pEC50 is the EC50 on a negative log10 scale, so that one unit is a factor of ten. Low values mean a large EC50, high ones a small EC50. The term Emax denotes the size of the effect at its maximum, as opposed to the concentration needed.

The target of assay [1] is T1, CFTR-mediated transepithelial chloride transport in primary human bronchial epithelial cells from a ΔF508 homozygous CF donor (Homo sapiens, UniProt P13569, DEL508-508).
T1 construct: Primary human bronchial epithelial cells from a ΔF508 homozygous CF donor; host or cells: primary CF-HBE cells, ΔF508 homozygous donor
The assay can be described thus: TECC24 recording of CFTR-mediated transepithelial chloride transport in CF-HBE cells (AUC fold over DMSO). Format: cell-based. Particulars: test agent 10 μM, 48 hours incubation, AUC of forskolin-stimulated IEQ relative to DMSO. How it is done: Example 316: TECC24 AUC Fold Over DMSO @ 10 uM
The effects of a test agent on CFTR-mediated transepithelial chloride transport was measured using TECC24 recording analysis. Test agents were solubilized in DMSO. Solubilized test agents were mixed with incubation medium containing DMEM/F12, Ultroser G (2%; Crescent Chemical, catalog #67042), Hyclone Fetal Clone II (2%; GE Healthcare, catalog #SH30066.02), bovine brain extract (0.25%; Lonza, catalog #CC-4098), insulin (2.5 μg/mL), IL-13 (10 ng/mL), hydrocortisone (20 nM), transferrin (2.5 μg/mL), triiodothyronine (500 nM), ethanolamine (250 nM), epinephrine (1.5 μM), phosphoethanolamine (250 nM), and retinoic acid (10 nM). Primary human bronchial epithelial cells from a ΔF508 homozygous CF donor (CF-HBE cells; from University of North Carolina Cystic Fibrosis Tissue Procurement Center), grown on Transwell HTS 24-well cell culture inserts (Costar, catalog #3378), were exposed to test agents or controls dissolved in incubation medium. The CF-HBE cells were cultured at 36.5° C. for 48 hours before TECC24 recordings were performed in the presence or absence of test agent, a positive control or vehicle (DMSO).
Following incubation, the transwell cell culture inserts containing the test agent or control-treated CF-HBE cells were loaded onto a TECC24 apparatus (TECC v7 or MTECC v2; EP Design) to record the transepithelial voltage (VT) and resistance (TEER) using 4 AgCl electrodes per well configured in current-clamp mode. The apical and basolateral bath solutions both contained (in mM) 140 NaCl, 5 KCl, 2 CaCl2), 1 MgCl2, 10 Hepes, and 10 glucose (adjusted to pH 7.4 with NaOH). To inhibit basal Na+ absorption, the ENaC inhibitor benzamil (10 μM) was added to the bath. Then, the adenylate cyclase activator, forskolin (10 μM), was added to the bath to activate CFTR. The forskolin-stimulated Cl-transport was halted by addition of CFTR inhibitor-172 (20 μM) to the bath at the end of the experiment to confirm specificity. VT and TEER recordings were digitally acquired at routine intervals using TECC or MTECC software (EP Design). VT and TEER were transformed into equivalent transepithelial Cl-current (IEQ), and the Area Under the Curve (AUC) of the IEQ time course between forskolin and CFTR inhibitor-172 addition was generated using Excel (Microsoft). Efficacy is expressed as the ratio of the test agent AUC divided by vehicle AUC. EC50s based on AUC are generated using the non-linear regression log(agonist) vs. response function in Prism software (GraphPad) with Hill Slope fixed=1.
If a test agent increased the AUC of the forskolin-stimulated IEQ relative to vehicle in CF-HBE cells, and this increase was inhibited by CFTR inhibitor-172, then the test agent was considered a CFTR corrector.

The target in assay [2] is T2, human Cystic Fibrosis Transmembrane Conductance Regulator (CFTR) harboring the ΔF508 mutation (Homo sapiens, UniProt P13569, DEL508-508).
T2 construct: expressed in transfected cells; host or cells: H441 carcinoma line (G418-selected)
The assay can be described thus: H441 cell ΔF508-CFTR-HRP cell surface assay (Emax and EC50). Format: cell-based. Particulars: for Emax: NCI-H441, NA = Not active. The essentials:
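H441 and 41o- bronchial epithelial cells expressing ΔF508-CFTR with an extracellular-loop-4 HRP tag were treated with a 15-point compound series (24.5–0.001 μM) for two nights, H441 at 27° C, 41o- at 37° C with 0.0005 mg/ml doxycycline. Surface HRP luminescence read; % of maximum VX809 signal and EC50 derived.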

T2 sequence (P13569 with tags, fused parts or gaps DEL508-508): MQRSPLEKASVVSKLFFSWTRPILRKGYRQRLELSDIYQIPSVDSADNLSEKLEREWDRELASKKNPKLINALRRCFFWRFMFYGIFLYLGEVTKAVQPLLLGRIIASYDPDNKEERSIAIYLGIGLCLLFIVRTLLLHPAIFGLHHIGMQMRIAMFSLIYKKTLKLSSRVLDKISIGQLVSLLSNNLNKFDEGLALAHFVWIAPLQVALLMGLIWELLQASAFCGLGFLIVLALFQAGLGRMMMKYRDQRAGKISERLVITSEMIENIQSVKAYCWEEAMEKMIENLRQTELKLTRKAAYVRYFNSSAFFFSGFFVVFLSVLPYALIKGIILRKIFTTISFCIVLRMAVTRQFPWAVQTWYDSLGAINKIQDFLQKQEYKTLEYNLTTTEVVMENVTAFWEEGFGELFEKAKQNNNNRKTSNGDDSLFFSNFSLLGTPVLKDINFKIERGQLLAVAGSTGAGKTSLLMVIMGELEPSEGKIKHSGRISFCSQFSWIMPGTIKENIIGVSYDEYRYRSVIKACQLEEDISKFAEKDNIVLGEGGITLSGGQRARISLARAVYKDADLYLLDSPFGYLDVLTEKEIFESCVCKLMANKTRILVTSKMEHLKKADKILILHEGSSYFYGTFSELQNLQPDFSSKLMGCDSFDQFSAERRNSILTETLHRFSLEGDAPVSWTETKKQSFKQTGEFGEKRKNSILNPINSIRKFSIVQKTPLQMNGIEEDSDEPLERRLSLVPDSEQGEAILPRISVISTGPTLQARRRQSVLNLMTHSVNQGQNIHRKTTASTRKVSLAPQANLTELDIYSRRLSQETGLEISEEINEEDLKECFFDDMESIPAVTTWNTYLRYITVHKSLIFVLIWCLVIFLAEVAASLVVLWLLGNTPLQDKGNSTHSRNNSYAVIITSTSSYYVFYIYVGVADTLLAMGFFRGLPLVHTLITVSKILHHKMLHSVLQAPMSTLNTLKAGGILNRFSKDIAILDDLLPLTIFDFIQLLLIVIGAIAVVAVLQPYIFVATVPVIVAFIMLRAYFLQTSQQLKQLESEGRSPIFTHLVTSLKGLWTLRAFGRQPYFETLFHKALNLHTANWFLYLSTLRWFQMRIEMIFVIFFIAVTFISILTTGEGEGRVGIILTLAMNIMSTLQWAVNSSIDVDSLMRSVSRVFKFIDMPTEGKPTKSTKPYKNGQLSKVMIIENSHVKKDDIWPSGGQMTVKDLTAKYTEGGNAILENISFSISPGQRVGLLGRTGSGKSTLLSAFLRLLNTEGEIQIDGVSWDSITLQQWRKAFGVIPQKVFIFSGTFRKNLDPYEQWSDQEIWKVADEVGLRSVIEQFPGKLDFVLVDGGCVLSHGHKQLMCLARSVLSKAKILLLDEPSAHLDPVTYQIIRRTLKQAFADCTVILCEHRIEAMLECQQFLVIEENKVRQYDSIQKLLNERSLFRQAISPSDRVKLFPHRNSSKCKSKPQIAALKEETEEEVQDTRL
T1 sequence (P13569 with tags, fused parts or gaps DEL508-508): as above

On to `CC(C)(C)[C@H](NC(=O)c1ccc2ccc(F)cc2c1OCc1ccc(C(F)(F)F)cc1)C(=O)O` [Example 241, (S)-2-(7-fluoro-1-((4-(trifluoromethyl)benzyl)oxy)-2-naphthamido)-3,3-dimethylbutanoic Acid], for which, in assay [1], the “TECC24 AUC fold over DMSO @10 μM” value is “A (“A” refers to AUC @10 uM >6)”. In assay [2], this molecule showed a pEC50 of 7.00 and an Emax of 236%.

`CC(C)(C)[C@H](NC(=O)c1ccc2ccccc2c1OCc1ccc(S(F)(F)(F)(F)F)cc1)C(=O)O` [Example 67, (S)-3,3-dimethyl-2-(1-((4-(pentafluoro-l6-sulfanyl)benzyl)oxy)-2-naphthamido)butanoic Acid]: in assay [1], the “TECC24 AUC fold over DMSO @10 μM” value is recorded as “A (“A” refers to AUC @10 uM >6)”. In addition, in assay [2], the pEC50 was 6.10 and the Emax was found to be 112%.

On to `CC(C)(C)[C@@H](NC(=O)c1ccc2ccc(F)cc2c1OCc1ccc(C(F)(F)F)cc1)C(=O)O` [Example 261, (2R)-2-[[7-fluoro-1-[[4-(trifluoromethyl)phenyl]methoxy]naphthalene-2-carbonyl]amino]-3,3-dimethyl-butanoic Acid], for which the “TECC24 AUC fold over DMSO @10 μM” value in assay [1] is listed as “A (“A” refers to AUC @10 uM >6)”. In assay [2], this molecule had a pEC50 of 6.05 and an Emax of 68.4%.

For the molecule `CCC(C)(C)[C@H](NC(=O)c1ccc2ccc(C)cc2c1OCc1ccc(C(F)(F)F)cc1)C(=O)O` [Example 288, (S)-3,3-dimethyl-2-(7-methyl-1-((4-(trifluoromethyl)benzyl)oxy)-2-naphthamido)pentanoic Acid], in assay [1], the “TECC24 AUC fold over DMSO @10 μM” value was “A (“A” refers to AUC @10 uM >6)”. In assay [2], this molecule gave a pEC50 of 7.00 and a maximal effect (Emax) of 404%.

In the case of `CC(C)(C)C[C@H](NC(=O)c1ccc2cc(F)ccc2c1OCc1ccc(C(F)(F)F)cc1)C(=O)O` [Example 198, (S)-2-(6-fluoro-1-((4-(trifluoromethyl)benzyl)oxy)-2-naphthamido)-4,4-dimethylpentanoic Acid], the “TECC24 AUC fold over DMSO @10 μM” value in assay [1] was “A (“A” refers to AUC @10 uM >6)”. Also, in assay [2], the negative-log EC50 (pEC50) is 5.82 and the maximal effect (Emax) turned out to be 94.4%.

As for `CC(C)(C)[C@H](NC(=O)c1ccc2ccc(C(F)F)cc2c1OCc1ccc(OC(F)(F)F)cc1)C(=O)O` [Example 245, (2S)-2-[[7-(difluoromethyl)-1-[[4-(trifluoromethoxy)phenyl]methoxy]naphthalene-2-carbonyl]amino]-3,3-dimethyl-butanoic Acid], in assay [1], the “TECC24 AUC fold over DMSO @10 μM” value is “A (“A” refers to AUC @10 uM >6)”. In assay [2], this molecule showed a pEC50 of 7.00 and a maximal response (Emax) of 284%.

Turning to `CCCC(C)(C)[C@H](NC(=O)c1ccc2ccc(C(F)F)cc2c1OCc1ccc(C(F)(F)F)cc1)C(=O)O` [Example 246, (2S)-2-[[7-(difluoromethyl)-1-[[4-(trifluoromethyl)phenyl]methoxy]naphthalene-2-carbonyl]amino]-3,3-dimethylhexanoic Acid], in assay [1], the “TECC24 AUC fold over DMSO @10 μM” value was “A (“A” refers to AUC @10 uM >6)”. In assay [2], this molecule had a negative logarithm of the EC50 (pEC50) of 7.00 and an Emax of 442%.

In the case of `CC1([C@H](NC(=O)c2ccc3ccc(Cl)cc3c2OCc2ccc(C(F)(F)F)cc2)C(=O)O)CCC1` [Example 300, (S)-2-(7-chloro-1-((4-(trifluoromethyl)benzyl)oxy)-2-naphthamido)-2-(1-methylcyclobutyl)acetic Acid], in assay [1], the “TECC24 AUC fold over DMSO @10 μM” value is given as “A (“A” refers to AUC @10 uM >6)”. In addition, in assay [2], the negative logarithm of the EC50 (pEC50) is 6.70 and the Emax was 232%.

Turning to `C#CC(C)(C)C(NC(=O)c1ccc2ccc(C)cc2c1OCc1ccc(C(F)(F)F)cc1)C(=O)O` (stereo not drawn) [Example 219, 3,3-dimethyl-2-[[7-methyl-1-[[4-(trifluoromethyl)phenyl]methoxy]naphthalene-2-carbonyl]amino]pent-4-ynoic Acid], in assay [1], the “TECC24 AUC fold over DMSO @10 μM” value is given as “A (“A” refers to AUC @10 uM >6)”. In assay [2], the pEC50 was 6.40 and the Emax was determined as 191%.

As for `O=C(N[C@H](C(=O)O)C1CCCC1)c1ccc2cc(F)ccc2c1OCc1ccc(C(F)(F)F)cc1` [Example 153, (S)-2-cyclopentyl-2-(6-fluoro-1-((4-(trifluoromethyl)benzyl)oxy)-2-naphthamido)acetic Acid], the “TECC24 AUC fold over DMSO @10 μM” value in assay [1] is “B (“B” refers to AUC @10 uM between 4-6)”. In assay [2], the pEC50 is 5.82 and the Emax came out at 73.5%.

For the molecule `CC(C)(C)[C@H](NC(=O)c1ccc2cc(N)ccc2c1OCc1ccc(C(F)(F)F)cc1)C(=O)O` [Example 52, (S)-2-(6-amino-1-((4-(trifluoromethyl)benzyl)oxy)-2-naphthamido)-3,3-dimethylbutanoic Acid], in assay [1], the “TECC24 AUC fold over DMSO @10 μM” value is on record as “C (“C” refers to AUC @10 uM <4)”. In assay [2], this molecule showed a pEC50 of 5.14 and a maximum response (Emax) of 91.4%.

As for `O=C(N[C@H](C(=O)O)C(c1ccccc1)c1ccccc1)c1ccc2ccccc2c1OCC1CCCCC1` [Example 199, (S)-2-(1-(cyclohexylmethoxy)-2-naphthamido)-3,3-diphenylpropanoic Acid], in assay [1], the “TECC24 AUC fold over DMSO @10 μM” value is recorded as “C (“C” refers to AUC @10 uM <4)”. In addition, in assay [2], the negative-log EC50 (pEC50) was 6.30 and the maximum response (Emax) was determined as 129%.

In the case of `O=C(N[C@H](C(=O)O)C1Cc2ccccc2C1)c1ccc2ccccc2c1OCc1ccc(C(F)(F)F)cc1` [Example 143, (S)-2-(2,3-dihydro-1H-inden-2-yl)-2-(1-((4-(trifluoromethyl)benzyl)oxy)-2-naphthamido)acetic Acid], in assay [1], the “TECC24 AUC fold over DMSO @10 μM” value is given as “B (“B” refers to AUC @10 uM between 4-6)”. Besides, in assay [2], the pEC50 was 5.72 and the Emax is 135%.

With `CC(C)(C)[C@H](NC(=O)c1ccc2ccc(C#N)cc2c1OCc1ccc(C(F)(F)F)cc1)C(=O)O` [Example 248, (2S)-2-[[7-cyano-1-[[4-(trifluoromethyl)phenyl]methoxy]naphthalene-2-carbonyl]amino]-3,3-dimethyl-butanoic Acid], the “TECC24 AUC fold over DMSO @10 μM” value in assay [1] is listed as “A (“A” refers to AUC @10 uM >6)”. In assay [2], this molecule showed a pEC50 of 5.82 and an Emax of 206%.

For the molecule `CC(C)(C)C[C@H](NC(=O)c1ccc2ccccc2c1OCC1CCCCC1)C(=O)O` [Example 201, (S)-2-(1-(cyclohexylmethoxy)-2-naphthamido)-4,4-dimethylpentanoic Acid], the “TECC24 AUC fold over DMSO @10 μM” value in assay [1] is “C (“C” refers to AUC @10 uM <4)”. Further, in assay [2], the pEC50 was 5.39 and the Emax was found to be 135%.

As for `COC(=O)c1ccc(COc2c(C(=O)N[C@H](C(=O)O)C(C)(C)C)ccc3ccccc23)cc1` [Example 28, (S)-2-(1-((4-(methoxycarbonyl)benzyl)oxy)-2-naphthamido)-3,3-dimethylbutanoic Acid], in assay [1], the “TECC24 AUC fold over DMSO @10 μM” value is “C (“C” refers to AUC @10 uM <4)”. In assay [2], this molecule gave a pEC50 of 5.31 and a maximum response (Emax) of 70.2%.

Regarding `O=C(N[C@H](C(=O)O)C(c1ccccc1)c1ccccc1)c1ccc2ccccc2c1OCc1ccc(OC(F)(F)F)cc1` [Example 189, (S)-3,3-diphenyl-2-(1-((4-(trifluoromethoxy)benzyl)oxy)-2-naphthamido)propanoic Acid], the “TECC24 AUC fold over DMSO @10 μM” value in assay [1] was “C (“C” refers to AUC @10 uM <4)”. Besides, in assay [2], the pEC50 is 5.62 and the Emax amounted to 14.3%.

With `O=C(N[C@H](C(=O)O)C1CCCC1)c1ccc2cc(F)ccc2c1OCc1ccc(OC(F)(F)F)cc1` [Example 119, (S)-2-cyclopentyl-2-(6-fluoro-1-((4-(trifluoromethoxy)benzyl)oxy)-2-naphthamido)acetic Acid], the “TECC24 AUC fold over DMSO @10 μM” value in assay [1] was “A (“A” refers to AUC @10 uM >6)”. In assay [2], the pEC50 is 6.10 and the Emax worked out at 37.1%.
